Reference: ChEMBL document CHEMBL1201862, “PubChem BioAssay data set” (2004)
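Each compound was tested at five concentrations against cells in 96-well plates for 48 hours. Abbreviation: GI50, concentration required for 50% inhibition of growth.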 The source made the active and inactive calls. Cut-off read from the data, not from the text of the source: active = GI50 up to about 1.1 µM and inactive = higher.

What was measured:
Test in all cases: NCI-60 cell line screen, 48 h
[1] = system: EKVX
[2] = system: K562
[3] = system: UACC-257
[4] = system: HCT-116
[5] = system: UO-31
[6] = system: MDA-MB-435
[7] = system: SK-MEL-28
[8] = system: U-251
[9] = system: HOP-62
[10] = system: A498
[11] = system: SK-MEL-2
[12] = system: RXF 393
[13] = system: RPMI-8226
[14] = system: PC-3
[15] = system: MDA-MB-231
[16] = system: OVCAR-8
[17] = system: OVCAR-3
[18] = system: BT-549
[19] = system: ACHN
[20] = system: Malme-3M

Compound	GI50 [1]	GI50 [2]	GI50 [3]	GI50 [4]	GI50 [5]	GI50 [6]	GI50 [7]	GI50 [8]	GI50 [9]	GI50 [10]	GI50 [11]	GI50 [12]	GI50 [13]	GI50 [14]	GI50 [15]	GI50 [16]	GI50 [17]	GI50 [18]	GI50 [19]	GI50 [20]
COc1cc(O)c2c(O)c3c(c4c2c1[C@]1(C4)C(C)=CCCC1(C)C)[C@H](O)[C@@]1(O)CC(O)=C(C(N)=O)C(=O)[C@@]1(O)C3=O	0.18 µM (active)	123 nM (active)	0.231 µM (active)	0.209 µM (active)	0.34 µM (active)	0.0667 µM (active)	0.873 µM (active)	0.0453 µM (active)	0.16 µM (active)	0.163 µM (active)	0.236 µM (active)	0.459 µM (active)	0.0612 µM (active)	0.119 µM (active)	0.259 µM (active)	0.113 µM (active)	0.228 µM (active)	0.318 µM (active)	0.209 µM (active)	0.158 µM (active)
O=C1C=CC(=O)c2c1ccc1c3ccccc3n(-c3cccc([N+](=O)[O-])c3)c21	> 5.45 µM (inactive)	367 nM (active)	2.62 µM (inactive)	1.92 µM (inactive)	2.4 µM (inactive)	2.05 µM (inactive)	2.84 µM (inactive)	9.71 µM (inactive)	> 10 µM (inactive)	5.85 µM (inactive)	> 10 µM (inactive)	2.38 µM (inactive)	1 µM (active)	> 8.3 µM (inactive)	2.72 µM (inactive)	2.83 µM (inactive)	2.13 µM (inactive)	1.69 µM (inactive)	1.7 µM (inactive)	1.98 µM (inactive)
CCCCCCCCCCNC1CC(OC2CC(O)(C(O)CO)Cc3c(O)c4c(c(O)c32)C(=O)c2c(OC)cccc2C4=O)OC(C)C1O (stereo not given)	1.78 µM (inactive)	324 nM (active)	1.72 µM (inactive)	0.692 µM (active)	1.77 µM (inactive)	1.77 µM (inactive)	1.76 µM (inactive)	0.986 µM (active)	1.66 µM (inactive)	1.5 µM (inactive)	1.4 µM (inactive)	1.26 µM (inactive)	0.839 µM (active)	1.47 µM (inactive)	1.36 µM (inactive)	1.55 µM (inactive)	1.69 µM (inactive)	1.7 µM (inactive)	1.73 µM (inactive)	1.94 µM (inactive)
CC(C)=CCC/C(C)=C/CC/C(C)=C/CCN(C)CCO	16.8 µM (inactive)	1540 nM (inactive)	8.24 µM (inactive)	4.12 µM (inactive)	12.1 µM (inactive)	4.44 µM (inactive)	8.45 µM (inactive)	3.3 µM (inactive)	6.78 µM (inactive)	14.2 µM (inactive)	13.2 µM (inactive)	7.59 µM (inactive)	2.96 µM (inactive)	6.47 µM (inactive)	10.9 µM (inactive)	11.7 µM (inactive)	13.8 µM (inactive)	10.8 µM (inactive)	10.8 µM (inactive)	3.54 µM (inactive)
CCOc1ccc(NC(=O)C(=O)Nn2c(N)nnc2N)cc1	> 100 µM (inactive)	> 100000 nM (inactive)	> 100 µM (inactive)	> 100 µM (inactive)	> 100 µM (inactive)	> 100 µM (inactive)	> 100 µM (inactive)	> 100 µM (inactive)	> 100 µM (inactive)	> 100 µM (inactive)	> 100 µM (inactive)	> 100 µM (inactive)	> 100 µM (inactive)	> 100 µM (inactive)	> 100 µM (inactive)	> 100 µM (inactive)	> 100 µM (inactive)	> 100 µM (inactive)	> 100 µM (inactive)	> 100 µM (inactive)
